Results taken from article PMC10872723 (Journal of medicinal chemistry, 2023).

Molecular target: WDR5 K296R (Homo sapiens, UniProt P61964, K296R)
Experiment: Immunoblot of WDR5 K296R mutant degradation in HEK293T cells
Format: cell-based
Settings: HEK293T cells overexpressing K296R (Dox), indicated concentrations, 3 days

## Cc1ncsc1-c1ccc([C@H](C)NC(=O)[C@@H]2C[C@@H](O)CN2C(=O)[C@@H](NC(=O)CNC(=O)c2ccc(F)c(-c3ccc(N4C[C@@H](C)N(C)[C@@H](C)C4)c(NC(=O)c4c[nH]c(=O)cc4C(F)(F)F)c3)c2)C(C)(C)C)cc1 [MS67]
  Degradation of WDR5 K296R mutant: resistant to the MS67 treatment
